According to US9963433B2, “Anticancer drugs including the chemical structures of an androgen receptor ligand and a histone deacetylase inhibitor” (Wayne State University, priority 2016, dated 2018):

Legend:
human recombinant HDAC6 = target: T1, human recombinant HDAC6 (Homo sapiens, UniProt Q9UBN7); experiment: HDAC6 fluorometric assay, recombinant enzyme; type: biochemical; conditions: for IC50: cell-free, FIG. 2C, read-out: IC50, inhibition of recombinant HDAC6
T1 construct: purchased Enzo Life Sciences BML-AK516
T1 sequence (Q9UBN7 1-1215): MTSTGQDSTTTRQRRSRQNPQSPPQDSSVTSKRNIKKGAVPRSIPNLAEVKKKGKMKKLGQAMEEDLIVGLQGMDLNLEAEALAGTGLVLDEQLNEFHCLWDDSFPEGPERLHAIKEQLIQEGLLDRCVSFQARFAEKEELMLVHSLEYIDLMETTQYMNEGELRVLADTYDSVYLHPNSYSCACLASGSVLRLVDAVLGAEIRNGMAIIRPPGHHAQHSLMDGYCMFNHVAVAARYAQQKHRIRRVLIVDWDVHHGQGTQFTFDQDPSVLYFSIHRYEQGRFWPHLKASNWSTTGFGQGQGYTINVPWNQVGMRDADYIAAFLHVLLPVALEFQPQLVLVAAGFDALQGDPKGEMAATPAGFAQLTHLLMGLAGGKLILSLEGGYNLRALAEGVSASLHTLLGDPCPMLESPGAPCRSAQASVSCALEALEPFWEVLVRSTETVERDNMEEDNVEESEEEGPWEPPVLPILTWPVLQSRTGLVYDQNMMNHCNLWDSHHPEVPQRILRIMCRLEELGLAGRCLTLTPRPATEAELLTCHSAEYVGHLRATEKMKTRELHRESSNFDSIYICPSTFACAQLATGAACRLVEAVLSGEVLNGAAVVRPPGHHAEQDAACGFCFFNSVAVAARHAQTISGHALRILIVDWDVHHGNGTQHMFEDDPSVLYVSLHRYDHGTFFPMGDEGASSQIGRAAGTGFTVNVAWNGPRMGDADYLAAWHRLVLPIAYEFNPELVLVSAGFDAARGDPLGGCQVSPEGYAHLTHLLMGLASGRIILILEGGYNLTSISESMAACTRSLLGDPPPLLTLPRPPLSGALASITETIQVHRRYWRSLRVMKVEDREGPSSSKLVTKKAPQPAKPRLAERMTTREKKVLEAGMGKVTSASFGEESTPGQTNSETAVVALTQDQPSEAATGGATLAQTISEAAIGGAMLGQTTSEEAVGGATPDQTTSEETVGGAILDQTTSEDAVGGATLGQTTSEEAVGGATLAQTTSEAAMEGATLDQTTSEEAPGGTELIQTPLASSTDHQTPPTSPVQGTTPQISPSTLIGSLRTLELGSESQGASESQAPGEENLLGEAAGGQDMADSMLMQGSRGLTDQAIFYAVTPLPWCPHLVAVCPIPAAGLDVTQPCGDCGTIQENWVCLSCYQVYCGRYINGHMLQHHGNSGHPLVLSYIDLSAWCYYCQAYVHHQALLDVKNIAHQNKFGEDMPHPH
Method: FIGS. 2A-2F show measurement of intrinsic and in situ HDACi activities. […] IC50 values were calculated from nonlinear regression plots using GraphPad Prism5 software. […] Recombinant HDAC6 was incubated with each drug at the indicated concentrations. IC50 values were calculated from nonlinear regression plots using GraphPad Prism5 software.
HDAC activity assay. In vitro HDAC inhibition was measured by using the HDAC fluorimetric assay/drug discovery Kit (Enzo Life Sciences, BML-AK500) and the HDAC6 fluorometric drug discovery kit (Enzo Life Sciences, BML-AK516) following the manufacturer's protocols and instructions. IC50 values were calculated from nonlinear […] plots using GraphPad Prism5 software.
HDAC1 and HDAC2 are enriched in nuclear extracts whereas HDAC6 is a cytosolic enzyme that is the principal modulator of the acetylation status of Hsp90. […] Again, TSA served as the positive control in FIG. 2D.

C4-2 cells = experiment: MTT cell viability assay, C4-2 cells; type: cell-based; conditions: for EC50: C4-2, 72 h, 0.1 μM-10 μM, read-out: EC50, inhibition of C4-2 cell growth; for cell death (viable cells below the number on Day 0): C4-2 cells, 5 μM, MTT Day 3 relative to Day 0, FIG. 6C
Method: (6A) C4-2 cells were seeded in 96-well plates and 24 h later, they were treated with the indicated compounds (0.1 μM-10 μM) or with vehicle (DMSO). Cell viability was measured by the MTT assay on Days 0 and 3 of treatment. EC50 values were calculated from nonlinear regression plots using GraphPad Prism5 software. […] Cell viability was measured by the MTT assay on Days 0 and 3 of treatment. […] Cell viability was measured by the MTT assay on Days 0 and 3 of treatment. […] (6D) 22Rv1 cells were infected with AR shRNA lentivirus, or control shRNA. 72 h after infection, cells were plated and viable cells were measured by the MTT assay on the indicated days (6D, bottom). Cells were also harvested for western blot analysis and probed with antibody to AR, which was also reactive with the AR splice variant AR-V7 (6D, top). (6E) 22Rv1 cells were seeded in 96-well plates and 24 h later, they were treated with the indicated compounds (0.1 μM-10 μM) or with vehicle (DMSO). Cell viability was measured by the MTT assay on Days 0 and 3 of treatment. EC50 values were calculated from nonlinear regression plots using GraphPad Prism5 software.
Cell Proliferation Assay. Cells were trypsinized and 6000 cells/well were seeded in 96-well plates coated with poly-D-lysine. The cells were seeded in phenol red-free medium supplemented with 10% FBS, 100 units/ml penicillin, 100 μg/ml streptomycin, 2 mM L-glutamine mixture and sodium pyruvate (1 mM) for C4-2 cells and phenol red-free medium supplemented with 10% FBS, 100 units/ml penicillin, 100 μg/ml streptomycin and 2 mM L-glutamine mixture for 22Rv1 cells. The cells were grown at 37° C. in 5% CO2. Twenty four hours after seeding in the 96-well plates, the cells were treated with indicated compound or DMSO (vehicle). The culture medium was not changed during the time course of the assay. On Day zero and on Day 3, cell viability was determined using the MTT assay. MTT (10 μL, 5 mg/mL) was added to each well and incubated for 2 h at 37° C. The formazan crystal sediments were dissolved in 100 μL of DMSO, and the absorbance at 570 nm was measured using the BioTek Synergy 2 Microplate Reader (BioTek, Winooski, Vt.). […] IC50 values were calculated from nonlinear […] plots using GraphPad Prism5 software.

Hsp90 = experiment: Western blot of Hsp90 protein in C4-2 cells; conditions: 1 μM to 10 μM, 24 h, relative to GAPDH, FIG. 4B
Method: Cells were then harvested for western blot analysis using antibody to AR (4A), HSP90 (4B), Acetyl-Lysine (4C) or GAPDH (loading control). ImageJ software was used to determine the intensities of the bands relative to the vehicle control for each protein. The values were then divided by the values for GAPDH within the same samples.
Western Blot Analysis. Cells were washed once with phosphate buffered saline (PBS) and then lysed with RIPA buffer (150 mM NaCl, 1% Nonidet P-40, 0.5% sodium deoxycholate, 0.1% SDS, 50 mM Tris of pH 8.0) containing a protease inhibitor cocktail (Pierce, Thermo Fisher Scientific). The cell lysates were then incubated on ice for 40 minutes. Total protein concentrations were estimated using the Bradford Assay (Bio-Rad). Protein samples (10-40 ug) were heated at 95° C. for 5 minutes and resolved by electrophoresis on 8% polyacrylamide-SDS gels and electrophoretically transferred to PVDF membranes (Millipore, Billerica, Mass.). The membranes were then probed overnight at 4° C. with the appropriate primary antibody followed by the appropriate horseradish peroxidase-conjugated secondary antibody.

| Structure (SMILES) | inhibitory activity against HDAC6 (human recombinant HDAC6; tested at 10 μM and 25 μM, FIG. 2D) | effect on C4-2 cell growth (C4-2 cells; MTT, Day 3, up to 10 μM, FIG. 6A) | Hsp90 protein level (degradation) (Hsp90) | IC50 (human recombinant HDAC6) | EC50 (C4-2 cells; MTT, Day 3, FIG. 6A) | cell death (viable cells below the number on Day 0) (C4-2 cells) |
| --- | --- | --- | --- | --- | --- | --- |
| CNC(=O)c1ccc(N2C(=S)N(c3ccc(C#N)c(C(F)(F)F)c3)C(=O)C2(C)C)cc1F [Enz, Enzalutamide, reference compound] | did not show significant inhibitory activity | could not appreciably affect growth even at a concentration of 10 μM | had no effect | – | – | – |
| CC1(C)C(=O)N(c2ccc(C#N)c(C(F)(F)F)c2)C(=S)N1c1ccc(C(=O)NCCCCCCC(=O)NO)c(F)c1 [Compound 2-75, 4-(3-(4-cyano-3-(trifluoromethyl)phenyl)-5,5-dimethyl-4-oxo-2-thioxoimidazolidin-1-yl)-2-fluoro-N-(7-(hydroxyamino)-7-oxoheptyl)benzamide] | – | – | more marked reduction in Hsp90 | 2 µM | 1620 nM | caused cell death |
| CC1(C)C(=O)N(c2ccc(C#N)c(C(F)(F)F)c2)C(=S)N1c1ccc(/C=C/C(=O)NO)c(F)c1 [Compound 1005, (E)-3-(4-(3-(4-cyano-3-(trifluoromethyl)phenyl)-5,5-dimethyl-4-oxo-2-thioxoimidazolidin-1-yl)-2-fluorophenyl)-N-hydroxyacrylamide] | – | – | more marked reduction in Hsp90 | 6.93 µM | 3290 nM | caused cell death |
